Test results taken from patent US20240174618A1, “SUBSTITUTED (2-HETEROARYLOXYPHENYL)SULFONATES, SALTS THEREOF AND THEIR USE AS HERBICIDAL AGENTS” (Bayer Aktiengesellschaft, priority 2021, published 2024).

Key:
Assay type in all cases: in vivo
[1] = test system: Alopecurus myosuroides (ALOMY); assay: A. Herbicidal pre-emergence efficacy, ALOMY; settings: 1280 g/ha; scored visually after about 3 weeks vs untreated controls
Text: Seeds of mono- and dicotyledonous weed plants were placed in plastic pots in sandy loam soil (doubly sown with one species each of mono- or dicotyledonous weed plants per pot) and covered with soil. The compounds of the invention, formulated in the form of wettable powders (WP) or as emulsion concentrates (EC), were then applied onto the surface of the covering soil as aqueous suspension or emulsion with addition of 0.5% additive at a water application rate of 600 liters per hectare (converted). After the treatment, the pots were placed in a greenhouse and kept under good growth conditions for the test plants. After about 3 weeks, the efficacy of the preparations was scored visually in comparison with untreated controls as percentages.
For example, • 100% efficacy=plants have died, • 0% efficacy=like untreated control plants.
Tables A1a to A12c below show the effects of selected compounds of the general formula (I) according to table 1 on various harmful plants at an application rate corresponding to 1280 g/ha or less, which were obtained by the experimental procedure mentioned above.

[2] = test system: Amaranthus retroflexus (AMARE); assay: B. Herbicidal post-emergence efficacy, AMARE
Outline: (§1)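 Visual percent efficacy relative to untreated controls (0% unaffected, 100% dead), scored roughly 3 weeks after foliar spraying of one-leaf-stage pot-grown plants with WP or EC preparations at application rates up to 1280 g/ha in 600 L/ha water containing 0.5% additive.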

[3] = test system: Abutilon theophrasti (ABUTH); assay: A. Herbicidal pre-emergence efficacy, ABUTH; settings: scored visually after about 3 weeks vs untreated controls
Outline: (§2)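 Pre-emergence soil-surface spray in sandy loam pots, WP/EC in water plus 0.5% additive, 600 L/ha. Visual % damage rating after about 3 weeks in greenhouse vs. untreated; 0% = control-like, 100% = dead plants. Rates up to 1280 g/ha.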

Stellaria media (STEME) [4] = assay: B. Herbicidal post-emergence efficacy, STEME
Outline: as §1

[5] = test system: Abutilon theophrasti (ABUTH); assay: B. Herbicidal post-emergence efficacy, ABUTH; settings: rated visually after about 3 weeks
Outline: as §1

Poa annua (POAAN) [6] = assay: A. Herbicidal pre-emergence efficacy, POAAN
Outline: as §2

Veronica persica (VERPE) [7] = assay: B. Herbicidal post-emergence efficacy, VERPE
Outline: as §1

[8] = test system: Digitaria sanguinalis (DIGSA); assay: B. Herbicidal post-emergence efficacy, DIGSA; settings: rated visually after about 3 weeks
Experimental: (§3) Seeds of mono- and dicotyledonous weed plants were placed in plastic pots in sandy loam soil (doubly sown with in each case one species of mono- or dicotyledonous weed plants per pot), covered with soil and cultivated in a greenhouse under controlled growth conditions. 2 to 3 weeks after sowing, the test plants were treated at the one-leaf stage. The compounds of the invention, formulated in the form of wettable powders (WP) or as emulsion concentrates (EC), were applied onto the green parts of the plants as aqueous suspension or emulsion with addition of 0.5% additive at a water application rate of 600 liters per hectare (converted). After the test plants had been kept in the greenhouse under optimum growth conditions for about 3 weeks, the activity of the preparations was rated visually in comparison to untreated controls.
(§4) For example, • 100% efficacy=plants have died, • 0% efficacy=like untreated control plants
(§5) Tables B1a to B12c below show the effects of selected inventive compounds of the general formula (I) according to table 1 on various harmful plants at an application rate corresponding to 1280 g/ha or less, which were obtained by the experimental procedure mentioned above.

[9] = test system: Echinochloa crus-galli (ECHCG); assay: B. Herbicidal post-emergence efficacy, ECHCG; settings: rated visually after about 3 weeks
Outline: as §1

Kochia scoparia (KCHSC) [10] = assay: A. Herbicidal pre-emergence efficacy, KCHSC; settings: pre-emergence
Outline: as §2

Kochia scoparia (KCHSC) [11] = assay: B. Herbicidal post-emergence efficacy, KCHSC; settings: for Post-emergence efficacy against KCHSC in %: rated visually after about 3 weeks
Outline: as §1

Veronica persica (VERPE) [12] = assay: A. Herbicidal pre-emergence efficacy, VERPE
Outline: as §2

[13] = test system: Matricaria inodora (MATIN); assay: B. Herbicidal post-emergence efficacy, MATIN
Experimental: as §3, §4, §5

[14] = test system: Echinochloa crus-galli (ECHCG); assay: A. Herbicidal pre-emergence efficacy, ECHCG; settings: 1280 g/ha; scored visually after about 3 weeks vs untreated controls
Outline: as §2

[15] = test system: Amaranthus retroflexus (AMARE); assay: A. Herbicidal pre-emergence efficacy, AMARE
Outline: as §2

[16] = test system: Matricaria inodora (MATIN); assay: A. Herbicidal pre-emergence efficacy, MATIN
Outline: as §2

Poa annua (POAAN) [17] = assay: B. Herbicidal post-emergence efficacy, POAAN
Outline: as §1

Stellaria media (STEME) [18] = assay: A. Herbicidal pre-emergence efficacy, STEME
Outline: as §2

Lolium rigidum (LOLRI) = assay: A. Herbicidal pre-emergence efficacy, LOLRI; settings: dosage 1280 g/ha
Outline: as §2

Setaria viridis (SETVI) [19] = assay: A. Herbicidal pre-emergence efficacy, SETVI
Outline: as §2

[20] = test system: Digitaria sanguinalis (DIGSA); assay: A. Herbicidal pre-emergence efficacy, DIGSA; settings: scored visually after about 3 weeks vs untreated controls
Outline: as §2

Setaria viridis (SETVI) [21] = assay: B. Herbicidal post-emergence efficacy, SETVI
Experimental: as §3, §4, §5

## O=S(=O)(CC1CC1(Cl)Cl)Oc1c(F)cccc1Oc1ncc(Cl)cn1 (stereo not drawn) [Example I-57]
[1]
  Pre-emergence efficacy against ALOMY: 100%
[2]; 80 g/ha
  Post-emergence efficacy against AMARE: 90%
[2]; 320 g/ha
  Post-emergence efficacy against AMARE: 90%
[2]; 1280 g/ha
  Post-emergence efficacy against AMARE: 90%
[3]; 320 g/ha
  Pre-emergence efficacy against ABUTH: 90%
[3]; 1280 g/ha
  Pre-emergence efficacy against ABUTH: 100%
Stellaria media (STEME) [4]; 80 g/ha
  Post-emergence efficacy against STEME: 90%
Stellaria media (STEME) [4]; 320 g/ha
  Post-emergence efficacy against STEME: 90%
Stellaria media (STEME) [4]; 1280 g/ha
  Post-emergence efficacy against STEME: 90%
[5]; 80 g/ha
  Post-emergence efficacy against ABUTH in %: 90%
[5]; 320 g/ha
  Post-emergence efficacy against ABUTH in %: 90%
[5]; 1280 g/ha
  Post-emergence efficacy against ABUTH in %: 90%
Poa annua (POAAN) [6]; dosage 320 g/ha
  Pre-emergence efficacy against POAAN: 100%
Poa annua (POAAN) [6]; dosage 1280 g/ha
  Pre-emergence efficacy against POAAN: 100%
Veronica persica (VERPE) [7]; 80 g/ha
  Post-emergence efficacy against VERPE: 90%
Veronica persica (VERPE) [7]; 1280 g/ha
  Post-emergence efficacy against VERPE: 90%
[8]; 320 g/ha
  Post-emergence efficacy against DIGSA in %: 90%
[8]; 1280 g/ha
  Post-emergence efficacy against DIGSA in %: 90%
[9]; 320 g/ha
  Post-emergence efficacy against ECHCG in %: 90%
[9]; 1280 g/ha
  Post-emergence efficacy against ECHCG in %: 90%
Kochia scoparia (KCHSC) [10]; dosage 320 g/ha
  Pre-emergence efficacy against KCHSC: 100%
Kochia scoparia (KCHSC) [10]; dosage 1280 g/ha
  Pre-emergence efficacy against KCHSC: 100%
Kochia scoparia (KCHSC) [11]; 80 g/ha
  Post-emergence efficacy against KCHSC in %: 90%
Kochia scoparia (KCHSC) [11]; 320 g/ha
  Post-emergence efficacy against KCHSC in %: 90%
Kochia scoparia (KCHSC) [11]; 1280 g/ha
  Post-emergence efficacy against KCHSC: 90%
Veronica persica (VERPE) [12]; 320 g/ha
  Pre-emergence efficacy against VERPE in %: 90%
Veronica persica (VERPE) [12]; 1280 g/ha
  Pre-emergence efficacy against VERPE in %: 100%
[13]; 320 g/ha
  Post-emergence efficacy against MATIN: 90%
[13]; 1280 g/ha
  Post-emergence efficacy against MATIN: 90%
[14]
  Pre-emergence efficacy against ECHCG: 100%
[15]; 80 g/ha
  Pre-emergence efficacy against AMARE in %: 100%
[15]; 320 g/ha
  Pre-emergence efficacy against AMARE in %: 100%
[15]; 1280 g/ha
  Pre-emergence efficacy against AMARE in %: 100%
[16]; 320 g/ha, scored visually after about 3 weeks vs untreated controls
  Pre-emergence efficacy against MATIN: 90%
[16]; pre-emergence, dosage 1280 g/ha
  Pre-emergence efficacy against MATIN: 100%
Poa annua (POAAN) [17]; 320 g/ha
  Post-emergence efficacy against POAAN: 90%
Poa annua (POAAN) [17]; 1280 g/ha
  Post-emergence efficacy against POAAN: 90%
Stellaria media (STEME) [18]; dosage 320 g/ha
  Pre-emergence efficacy against STEME: 100%
Stellaria media (STEME) [18]; dosage 1280 g/ha
  Pre-emergence efficacy against STEME: 100%
Lolium rigidum (LOLRI)
  Pre-emergence efficacy against LOLRI: 100%
Setaria viridis (SETVI) [19]; dosage 80 g/ha
  Pre-emergence efficacy against SETVI: 90%
Setaria viridis (SETVI) [19]; dosage 320 g/ha
  Pre-emergence efficacy against SETVI: 100%
Setaria viridis (SETVI) [19]; dosage 1280 g/ha
  Pre-emergence efficacy against SETVI: 100%
[20]; 80 g/ha
  Pre-emergence efficacy against DIGSA: 90%
[20]; 320 g/ha
  Pre-emergence efficacy against DIGSA: 100%
[20]; 1280 g/ha
  Pre-emergence efficacy against DIGSA: 100%
Setaria viridis (SETVI) [21]; 320 g/ha
  Post-emergence efficacy against SETVI: 90%
Setaria viridis (SETVI) [21]; 1280 g/ha
  Post-emergence efficacy against SETVI: 90%
